In publication PMC7163917 (European journal of medicinal chemistry, 2020):
Read-outs that look alike come from different tables or passages of the source.

Experiments:
[1] = target: T1, STEP (Homo sapiens, UniProt P54829); test: Ki measurement and Lineweaver-Burk kinetic analysis of STEP inhibition; assay type: biochemical; settings: pNPP, pH 6.0, 30 °C
T1 sequence (P54829 300-555 limits assumed): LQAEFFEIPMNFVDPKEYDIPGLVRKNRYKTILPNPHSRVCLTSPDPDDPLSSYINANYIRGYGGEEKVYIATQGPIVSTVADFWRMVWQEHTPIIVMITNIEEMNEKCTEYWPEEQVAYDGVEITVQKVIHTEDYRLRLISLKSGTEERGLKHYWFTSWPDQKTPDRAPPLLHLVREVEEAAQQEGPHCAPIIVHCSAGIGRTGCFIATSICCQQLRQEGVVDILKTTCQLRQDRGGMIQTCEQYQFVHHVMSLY

[2] = tested on: phosphorylation of ERK1/2 in PC12 cells; test: NGF-induced phosphorylation of ERK1/2 in PC12 cells; assay type: cell-based; settings: 20 μM inhibitor, NGF 5 min
[3] = tested on: phosphorylation of Pyk2 in PC12 cells; test: NGF-induced phosphorylation of Pyk2 in PC12 cells; assay type: cell-based; settings: 20 μM inhibitor, NGF 5 min
[4] = target: STEP F523A mutant (Homo sapiens, UniProt P54829, F547A)
Sequence of STEP F523A mutant (P54829 282-563 F547A): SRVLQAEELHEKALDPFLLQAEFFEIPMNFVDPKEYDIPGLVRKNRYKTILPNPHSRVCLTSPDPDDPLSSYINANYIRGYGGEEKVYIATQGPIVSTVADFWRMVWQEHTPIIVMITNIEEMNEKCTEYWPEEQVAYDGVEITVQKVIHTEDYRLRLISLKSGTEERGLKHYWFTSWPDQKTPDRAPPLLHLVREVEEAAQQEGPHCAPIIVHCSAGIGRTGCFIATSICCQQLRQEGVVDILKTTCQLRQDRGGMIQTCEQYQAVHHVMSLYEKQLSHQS

[5] = target: T1, STEP; test: STEP-catalyzed pNPP hydrolysis inhibition; assay type: biochemical; settings: ST3 analogs, removal of carboxyl and hydroxyl group

Row | Compound | inhibition pattern (Lineweaver-Burk plot) [1] | effect on NGF-induced phosphorylation of ERK1/2 [2] | effect on NGF-induced phosphorylation of Pyk2 [3] | inhibitory activity in STEP F523A mutant compared with wild type [4] | effect of structural change on STEP inhibitory activity [5] | inhibitory activity in STEP F523A mutant compared with wild type ([4]; STEP F523A mutant)
1 | O=C(O)c1cccc2c1NC(c1cccc(Br)c1)C1CC(Sc3ccccc3[N+](=O)[O-])C(Cl)C21 (centres unmarked) [ST2] | competitive | significantly increased | significantly increased | decreased |  | 
2 | O=C(O)c1cccc2c1NC(c1ccc(F)cc1)C1CC(Sc3ccccc3[N+](=O)[O-])C(Cl)C21 (centres unmarked) [ST2–5] | competitive | significantly increased | significantly increased | decreased |  | 
3 | O=C(O)c1cc(-c2ccc(/C=C3\Sc4ccccc4C3=O)o2)ccc1O [ST3] | competitive | significantly increased | significantly increased |  |  | 
4 | Cc1cc(-c2ccc(/C=C3\Sc4ccccc4C3=O)o2)ccc1Cl [ST3–1] |  |  |  |  | significantly decreased | 
5 | COC(=O)c1cccc(-c2ccc(/C=C3\Sc4ccccc4C3=O)o2)c1 [ST3–3] |  |  |  |  | significantly decreased | 
6 | Cc1cc(C(=O)O)ccc1-c1ccc(C=C2C(=O)c3ccccc3C2=O)o1 [ST3–5] | competitive | significantly increased | significantly increased |  |  | decreased
